Patent US4962096A, “Heterocyclic glycerol derivatives and their use as anti-hypertensive agents” (Nippon Chemiphar Co., Ltd., priority 1987, dated 1990)

What was measured:
[1] = system: PAF-induced platelet aggregation; test: Inhibitory effect on PAF-induced platelet aggregation; assay type: cell-based; conditions: rabbit PRP; PAF 1×10^-8 M, test concentration not readable
Description: In the same manner as above, a platelet rich plasma (PRP) and a platelet poor plasma (PPP) were prepared for performing the following experiment.
(§1) PRP was diluted with PPP to give a sample containing platelets at 300,000/mm^3.
10 μl of a test solution was added to 180 μl of PRP. To the resulting mixture was added 10 μl of a solution of a commercially available PAF (No.P-4904, available from Sigma Corp.) to give a concentration of 1×10^-8 M, and aggregation was observed. For the preparation of the test solution and the PAF solution, a saline solution containing 0.25% bovine serum albumin was employed.
The effect of the test sample for suppressing aggregation was obtained in terms of a degree of suppression of the maximum aggregation in the control PRP caused by the PAF.

Male Wistar rats = test: Blood pressure reducing action: intravenous injection (MABP50); assay type: in vivo, rat; conditions: anesthetized male Wistar rats, injection in saline with 0.25% bovine serum albumin, from dose-response curve; for ED (50 mmHg): Rattus norvegicus, iv, read-out: MABP50 (dose required for reducing a mean blood pressure by 50 mmHg)
Description: Male Wistar rats (mean body weight: 420 g) were anesthetized by intraperitoneal injection of 50 mg/kg of pentobarbital sodium, and their blood pressures were measured at left femoral artery. Subsequently, a compound to be tested was dissolved in a saline solution containing 0.25% bovine serum albumin and injected into the rat through the right femoral artery.
A dose-response curve was prepared from the obtained values for each of the following compounds of the present invention to determine a dose required for reducing a mean blood pressure by 50 mmHg (MABP50).

platelet = test: Platelet aggregation action in platelet rich plasma; assay type: cell-based; conditions: rabbit PRP, 300,000 platelets/mm^3, final concentration 2×10^-10 to 2×10^-4 M, unit inferred
Description: A male Japanese white rabbit was anesthetized by pentobarbital, and a blood was collected in aqueous 3.13% sodium citrate solution at its carotid. The blood containing 1/10 volume ratio of the sodium citrate solution was treated in a conventional manner to give a platelet rich plasma (PRP) and a platelet poor plasma (PPP) for performing the following experiment.
as §1
Aggregation of platelet was determined by means of Platelet Aggregation Tracer PAT-4A(available from Niko Bioscience Co., Ltd., Japan). 10 μl of a test solution was added to 190 μl of PRP to give a final concentration of 2×10^-10 to 2×10^-4 M, and an aggregation curve is recorded. For the preparation of the test solution, a saline solution containing 0.25% bovine serum albumin.
According to the aggregation curve obtained for each of the following compound of the present invention, following EC50 value was obtained.

[2] = system: Male spontaneously hypertensive rats; test: Blood pressure reducing action: oral administration; assay type: in vivo, rat
Description: Male spontaneously hypertensive rats (average body weight: 359 g) were anesthetized with ether. Blood pressure was measured for each rat through cannulation at its left femoral artery. A compound to be tested was dissolved in a distilled water and the resulting aqueous solution was administered orally.

[3] = Oryctolagus cuniculus, Platelet

Compound | EC50 (platelet; [3]) [nM] | ED (50 mmHg) (Male Wistar rats) [µg/kg] | other results
2-Acetyloxy-3-hexadecyloxypropyl 1-(1-fluorophenyl)-2-methylisoquinolinio-3-ylmethyl phosphate | – | – | degree of suppression of the maximum aggregation caused by the PAF [1]: 100%
CCCCCCCCCCCCCCCCOCC(COP(=O)([O-])OCC1CSC(c2ccccc2)[N+]1(C)C)OC(C)=O (single isomer, unassigned) [S(Product B), 2-acetyloxy-3-hexadecyloxypropyl 3,3-dimethyl-2-phenyl-1,3-thiazolidinio-4-ylmethyl phosphate] | – | – | MABP50 (dose required for reducing a mean blood pressure by 50 mmHg) (Male Wistar rats): 0.35 µg/kg; EC50 (platelet): 740 nM
CCCCCCCCCCCCCCCCOCC(COP(=O)([O-])OC1C[N+]2(C)CCC1CC2)OC(C)=O (stereo not drawn) [A, 2-acetyloxy-3-hexadecyloxypropyl 1-methyl-1-azoniabicyclo[2,2,2]-3-octyl phosphate] | 0.76 | 0.005 | –
CCCCCCCCCCCCCCCCOCC(COP(=O)([O-])OC1CC2CCC(C1)[N+]2(C)C)OC(C)=O (stereo not drawn) [B, 2-acetyloxy-3-hexadecyloxypropyl endo-8,8-dimethyl-8-azoniabicyclo[3,2,1]-3-octyl phosphate] | 2.3 | 0.12 | –
CCCCCCCCCCCCCCCCOC(C)C(COP(=O)([O-])OC1C[N+]2(C)CCC1CC2)OC(C)=O (stereo not drawn) [C, 2-acetyloxy-3-hexadecyloxybutyl 1-methyl-1-azoniabicyclo[2,2,2]-3-octylphosphate] | 5.2 | 0.099 | Change of Blood Pressure About 30 min. after Administration ([2]; 3 mg/kg): -64.5 mmHg
CCCCCCCCCCCCCCCCOCC(COP(=O)([O-])OCC1CCCC[N+]1(C)C)OC(C)=O (stereo not drawn) [Compound E, 2-acetyloxy-3-hexadecyloxypropyl 1,1-dimethylpiperidinio-2-ylmethyl phosphate] | 10 | 0.132 | –
CCCCCCCCCCCCCCCCOCC(COP(=O)([O-])OCC1CCC[N+]1(C)C)OC(C)=O (stereo not drawn) [D, 2-acetyloxy-3-hexadecyloxypropyl 1,1-dimethylpyrrolidinio-2-ylmethyl phosphate] | 0.5 | 0.024 | –
CCCCCCCCCCCCCCCCOCC(COP(=O)([O-])OCC1CCC[N+](C)(C)C1)OC(C)=O (stereo not drawn) [F, 2-acetyloxy-3-hexadecyloxypropyl 1,1-dimethylpiperidinio-3-ylmethyl phosphate] | 1.5 | 0.058 | –
CCCCCCCCCCCCCCCCOC(C)C(COP(=O)([O-])OC(c1ccccc1)C1CCC[N+]1(C)C)OCc1ccccc1 (stereo not drawn) [I, 2-Benzyloxy-3-hexadecyloxybutyl erythro-1,1-dimethylpyrrolidinio-2-ylphenylmethyl phosphate] | – | – | degree of suppression of the maximum aggregation caused by the PAF [1]: 100%
CCCCCCCCCCCCCCCCOCC(COP(=O)([O-])OC(c1ccccc1)C1CCC[N+]1(C)C)OCc1ccccc1 (stereo not drawn) [J, 2-Benzyloxy-3-hexadecyloxypropyl erythro-1,1-dimethylpyrrolidinio-2-ylphenylmethyl phosphate] | – | – | degree of suppression of the maximum aggregation caused by the PAF [1]: 99%
CCCCCCCCCCCCCCCCOCC(COP(=O)([O-])OC(c1ccccc1)C1CCC[N+]1(C)C)OCc1ccccc1 (stereo not drawn) [K, 2-Benzyloxy-3-hexadecyloxypropyl threo-1,1-dimethylpyrrolidinio-2-ylphenylmethyl phosphate] | – | – | degree of suppression of the maximum aggregation caused by the PAF [1]: 73%
CCCCCCCCCCCCCCCCOCC(COP(=O)([O-])OCC1CCCC[N+]1(C)C)OCc1ccccc1 (stereo not drawn) [L, 2-Benzyloxy-3-hexadecyloxypropyl 1,1-dimethylpiperidinio-2-ylmethyl phosphate] | – | – | degree of suppression of the maximum aggregation caused by the PAF [1]: 55%
CCCCCCCCCCCCCCCCOCC(COP(=O)([O-])OC(c1ccccc1)C1CCC[N+]1(C)C)OC(C)=O (stereo not drawn) [M, 2-Acetyloxy-3-hexadecyloxypropyl erythro-1,1-dimethylpyrrolidinio-2-ylphenylmethyl phosphate] | – | – | degree of suppression of the maximum aggregation caused by the PAF [1]: 100%
CCCCCCCCCCCCCCCCOCC(COP(=O)([O-])OCC1=CCC[N+](C)(C)C1)OC(C)=O (stereo not drawn) [R, 2-acetyloxy-3-hexadecyloxypropyl 1,1-dimethyl-1,2,5,6-tetrahydropyridinio-3-ylmethyl phosphate] | – | 0.024 | –
CCCCCCCCCCCCCCCCOCC(COP(=O)([O-])OCCc1ccc[n+](C)c1)OC(C)=O (stereo not drawn) [U, 2-acetyloxy-3-hexadecyloxypropyl 1-methylpyridinio-3-ylethyl phosphate] | – | – | MABP50 (dose required for reducing a mean blood pressure by 50 mmHg) (Male Wistar rats): 0.195 µg/kg; EC50 (platelet): 85 nM

More lines, main results first:

EC50 (platelet; [3]) [nM] | Compound | ED (50 mmHg) (Male Wistar rats) [µg/kg] | other results
670 | CCCCCCCCCCCCCCCCOCC(COP(=O)([O-])OCC1CSC(c2ccccc2)[N+]1(C)C)OC(C)=O (single isomer, unassigned) [S(Product A), 2-acetyloxy-3-hexadecyloxypropyl 3,3-dimethyl-2-phenyl-1,3-thiazolidinio-4-ylmethyl phosphate] | – | MABP50 (dose required for reducing a mean blood pressure by 50 mmHg) (Male Wistar rats): 0.16 µg/kg
90 | CCCCCCCCCCCCCCCCOCC(COP(=O)([O-])OCC1CC[N+](C)(C)CC1)OC(C)=O (stereo not drawn) [G, 2-acetyloxy-3-hexadecyloxypropyl 1,1-dimethylpiperidinio-4-ylmethyl phosphate] | 0.97 | –
2.4 | CCCCCCCCCCCCCCCCOCC(COP(=O)([O-])OCCC1CCC[N+]1(C)C)OC(C)=O (stereo not drawn) [H, 2-acetyloxy-3-hexadecyloxypropyl 2-(1,1-dimethylpyrrolidinio-2-yl)ethylphosphate] | 0.058 | –
180 | CCCCCCCCCCCCCCCCOCC(COP(=O)([O-])OCC1Cc2ccccc2C[N+]1(C)C)OC(C)=O (stereo not drawn) [O, 2-acetyloxy-3-hexadecyloxypropyl 2,2-dimethyl-1,2,3,4-tetrahydroisoquinolinio-3-ylmethyl phosphate] | 3.2 | –
50 | CCCCCCCCCCCCCCCCOCC(COP(=O)([O-])OCC1CCc2ccccc2[N+]1(C)C)OC(C)=O (stereo not drawn) [P, 2-acetyloxy-3-hexadecyloxypropyl 1,1-dimethyl-1,2,3,4-tetrahydroquinolinio-2-ylmethyl phosphate] | 0.11 | –
0.52 | CCCCCCCCCCCCCCCCOCC(COP(=O)([O-])OCC1CSC[N+]1(C)C)OC(C)=O (stereo not drawn) [Q, 2-acetyloxy-3-hexadecyloxypropyl 3,3-dimethyl-1,3-thiazolidinio-4-ylmethyl phosphate] | 0.032 | –
3.2 | CCCCCCCCCCCCCCCCOCC(COP(=O)([O-])OCCc1sc[n+](C)c1C)OC(C)=O (stereo not drawn) [T, 2-acetyloxy-3-hexadecyloxypropyl 3,4-dimethylthiazolio-5-ylethyl phosphate] | 0.00023 | Change of Blood Pressure About 30 min. after Administration ([2]; 10 mg/kg): -35.3 mmHg
77 | CCCCCCCCCCCCCCCCOC(C)C(COP(=O)([O-])OCC1=CCC[N+](C)(C)C1)OC(C)=O (stereo not drawn) [V, 2-acetyloxy-3-hexadecyloxybutyl 1,1-dimethyl-1,2,5,6-tetrahydropyridinio-3-ylmethyl phosphate] | 0.64 | Change of Blood Pressure About 30 min. after Administration ([2]; 3 mg/kg): -49.0 mmHg
73 | CCCCCCCCCCCCCCCCOC(C)C(COP(=O)([O-])OCCc1sc[n+](C)c1C)OC(C)=O (stereo not drawn) [W, 2-acetyloxy-3-hexadecyloxybutyl 3,4-dimethylthiazolio-5-ylethyl phosphate] | 0.067 | Change of Blood Pressure About 30 min. after Administration ([2]; 1 mg/kg): -36.0 mmHg
